Source: patent US3976762A (priority 1974, dated 1976)
Where two headings read alike, the source gives them in different places.

Conditions: mouse, in vivo; for Urine and Feces, percent of total injected radioactivity: iv

## Tc-99m-1,5-diaminopentylphosphonic acid
  Localization / excretion of the complex (in words): high uptake of the complex by the kidney without rapid excretion
0 h
  Urine and Feces, percent of total injected radioactivity: 0.0
0.5 h
  Urine and Feces, percent of total injected radioactivity: 47.3
1 h
  Urine and Feces, percent of total injected radioactivity: 55.0
2 h
  Urine and Feces, percent of total injected radioactivity: 61.3
24 h
  Urine and Feces, percent of total injected radioactivity: 83.2

## Tc-99m-1-aminobutylphosphonic acid
  Localization / excretion of the complex (in words): rapidly excreted via the kidney
0 h
  Urine and Feces, percent of total injected radioactivity: 0.0
0.5 h
  Urine and Feces, percent of total injected radioactivity: 74.2
1 h
  Urine and Feces, percent of total injected radioactivity: 85.0
2 h
  Urine and Feces, percent of total injected radioactivity: 90.7
4 h
  Urine and Feces, percent of total injected radioactivity: 86.6
